Measurements as given in patent US9296754B2, “Compounds and compositions for the treatment of parasitic diseases” (Novartis AG, priority 2013, dated 2016).

Legend:
[1] = system: Leishmania donovani axenic amastigote parasites; assay: Leishmania donovani axenic amastigote proliferation assay (Cell TiterGlo luminescence); type: cell-based; settings: 48 h, axenic amastigotes, 2 day incubation, read-out: L. donovani amastigotes EC50
Method: Leishmania donovani Axenic Amastigote Proliferation Assay […] At the same time control compounds and DMSO are added to plates to serve as the positive and negative controls, respectively. 40 μL of parasite culture (9600 parasites) are then added to the plate wells. The plates are then placed into incubators. After 2 day incubation, 20 μL of Cell TiterGlo (Promega) is added to the plate wells. The luminescence signal of each well is measured using the Envision reader (Perkin Elmer).

[2] = system: Trypanosoma brucei Lister 427 strain, bloodstream form; assay: Proliferation of Trypanosoma brucei (Cell Titer Glo); type: cell-based; settings: 48 hours, read-out: T. brucei EC50
Excerpt: Assay for Proliferation of Kinetoplastid Parasite Trypanosoma brucei. The proliferation is quantified by the addition of Cell Titer Glo (Promega®) a luminescent cell viability assay that measures the number of viable cells in culture based on the quantification of cellular ATP amount, which is an indicator of metabolically active cells. The following assay illustrates the invention without in any way limiting the scope of the invention. This parasite proliferation assay measures the increase in parasite growth using an assay that measures ATP activity, Cell Titer Glo®. […] Then 25 μl of a suspension of T. brucei culture in HMI-9 media is dispensed into the assay plates. […] The plates are then read for luminescence.

EC50 [1]: 4.2 µM
EC50 [2]: 479 nM
Compound: CON(C)C(=O)Nc1cccc(-c2cn3cc(NC(=O)OC(C)C)cnc3n2)c1 [Compound 14, propan-2-yl N-[2-(3-{[methoxy(methyl)carbamoyl]amino}phenyl)imidazo[1,2-a]pyrimidin-6-yl]carbamate]
